Values of other authors in paper PMC10377753, “Pharmacokinetic and pharmacodynamic properties of polymyxin B in Escherichia coli and Klebsiella pneumoniae murine infection models” (Journal of Antimicrobial Chemotherapy, 2023).

Test system: plasma proteins
Details: mouse, spiked pooled plasma, ultracentrifugation; cited from earlier work
Source text: Protein binding of polymyxin B is known to be high. However, a difference was found between the current study (unbound fraction 20%) compared with previous studies (8.6% for polymyxin B,[8] 8.4% for colistin[5]), which affects the PTA. In the present study, ultrafiltration was used for determining the unbound fraction, whilst ultracentrifugation was used in the other studies. With the ultrafiltration method, correction for the NSB to the ultrafiltration membranes was needed. In addition, differences in mouse plasma used for determination of polymyxin B protein binding may (partly) explain the ...

For colistin, the Unbound fraction is listed as 8.4%.
